Data reported in patent US20250213533A1 (GH RESEARCH IRELAND LIMITED, priority 2022, published 2025).

Tested on: patients with postpartum depression (PPD)
Assay: Clinical trial of inhaled 5-MeO-DMT (IDR) in postpartum depression; one patient so far, 6 mg then 12 mg
Conditions: 1 patient
Description: The single-arm, open-label clinical trial will involve 15 adult female patients with clinically diagnosed postpartum depression (PPD).
The second dose (12 mg) will only be administered if: • a. […] The 6 mg dose was safe and well-tolerated according to the investigator, • c. Any psychoactive effects (PsE) of the prior dose have subsided, and • d. Pre-dose vital parameters and forced expiratory volume in one second (FEV1) are in normal range, or if outside of the normal range, are not clinically significant according to the investigator. • 3. Similarly, a third dose (18 mg) will only be administered if: • a. […] The 12 mg dose was safe and well-tolerated according to the investigator, and • c. Any PsE of the prior dose have subsided, and • d. Pre-dose vital parameters and forced expiratory volume in one second (FEV1) are in normal range, or if outside of the normal range, are not clinically significant according to the investigator.
The patients will be assessed for a peak psychedelic experience (based on a patient-scored visual analogue scale, the PE scale), sedation, and other endpoints after dosing. Follow-up visits are planned for Day 1, and Day 7 after the dosing day.
The following criteria must be met by all patients considered for clinical trial participation: • 1. Is female and in the age range between 18 and 45 years (inclusive) at screening. • 2. Has a body mass index (BMI) in the range of 18.5 and 35 kg/m^2 (inclusive) at screening. • 3. Meets the trial criteria for PPD as assessed by a trial psychiatrist or registered psychologist: • a. Diagnosis of Major Depressive Disorder without psychotic features, confirmed by the Mini-International Neuropsychiatric Interview (MINI), with peri-partum onset that began no earlier than gestation and no later than the first 4 weeks postpartum. • b. Has a Montgomery-Åsberg Depression Rating Scale (MADRS) total score of equal to or greater than 28 at screening and pre-dose on Day 0. • 6. […] Patients must have a negative pregnancy test at screening and on the pre-test day (Day −1). • 5. Is willing to delay start of other antidepressant or anxiety medication until after the end of the trial at Day 7 and agrees to keep any psychotherapy unchanged during the trial.
A potential patient who meets any of the following key exclusion criteria will be excluded from participation in this trial: • 1. Has, based on history, psychiatric assessment, and evaluation of the MINI, a current or prior diagnosis of bipolar disorder, a manic or hypomanic episode, a psychotic disorder, Major Depressive Disorder (MDD) or other mood disorder with psychotic features, obsessive compulsive disorder, post-traumatic stress disorder (PTSD), autism spectrum disorder, borderline personality disorder, schizophrenia, delusional disorder, paranoid personality disorder, schizoaffective disorder, clinically significant intellectual disability, or any other psychiatric comorbidity that renders the patient unsuitable for the trial according to the investigator's judgment. • 2. Has one or more first or second degree relatives with a current or previously diagnosed bipolar disorder, psychotic disorder or other mood disorder (including MDD) with psychotic features. • 3. Is in the judgement of a trial psychiatrist or registered psychologist, at significant risk for suicide based on history, psychiatric assessment, and evaluation of suicidal ideation and suicidal behaviour based on the Columbia-Suicide Severity Rating Scale (C-SSRS). • 4. Has taken anti-depressive medication within 14 days or 5 half-lives (whichever is longer) prior to dosing (exception: within the last 5 weeks in the case of fluoxetine). • 5.

Compound: COc1ccc2[nH]cc(CCN(C)C)c2c1 [5-MeO-DMT]
- ECG (3 hours), safety laboratory analyses (7 days), CADSS (3 hours, 1 day, 7 days): unremarkable
- standard criteria for MADRS remission (total score equal or less than 10): fulfilled
- standard criteria for MADRS response (at least 50% improvement from baseline): fulfilled
- time to clinical response after administration: ≤ 2 h
- tolerability of the inhalation procedure: well tolerated with no inhalation-related adverse events
- MADRS Apparent sadness improvement (2hr): 5
- MADRS Apparent sadness score (2hr): 0
- MADRS Concentration Difficulties improvement (2hr): 0
- MADRS Concentration Difficulties score (2hr): 0
- MADRS Inability to Feel improvement (2hr): 3
- MADRS Inability to Feel score (2hr): 0
- MADRS Inner Tension improvement (2hr): 5
- MADRS Inner Tension score (2hr): 0
- MADRS Lassitude improvement (2hr): 3
- MADRS Lassitude score (2hr): 0
- MADRS Pessimistic Thoughts improvement (2hr): 4
- MADRS Pessimistic Thoughts score (2hr): 0
- MADRS Reduced Sleep improvement (2hr): 0
- MADRS Reduced Sleep score (2hr): 5
- MADRS Reduced appetite improvement (2hr): 0
- MADRS Reduced appetite score (2hr): 0
- MADRS Reported sadness improvement (2hr): 4
- MADRS Reported sadness score (2hr): 0
- MADRS Suicidal Thoughts improvement (2hr): 0
- MADRS Suicidal Thoughts score (2hr): 0
- BIMF TOTAL score (Day 0): 92
- BIMF item 1 (I am a good mother) score (Day 0): 6
- BIMF item 2 (I feel rested) score (Day 0): 0
- BIMF item 3 (comfortable with the way I've chosen to feed my baby) score (Day 0): 6
- BIMF item 4 (My baby and I understand each other) score (Day 0): 5
- BIMF item 5 (able to relax and enjoy time with my baby) score (Day 0): 5
- BIMF item 6 (people I can trust to care for my baby when I need a break) score (Day 0): 6
- BIMF item 8 (getting enough adult interaction) score (Day 0): 6
- BIMF item 9 (getting enough encouragement from other people) score (Day 0): 5
- BIMF item 10 (trust my own feelings (instincts) in taking care of my baby) score (Day 0): 5
- BIMF item 11 (take a little time each week to do something for myself) score (Day 0): 5
- BIMF item 12 (taking good care of my baby's physical needs) score (Day 0): 6
- BIMF item 13 (taking good care of my physical needs) score (Day 0): 4
- BIMF item 14 (good decisions about my baby's health and well being) score (Day 0): 6
- BIMF item 15 (My baby and I are getting into a routine) score (Day 0): 5
- BIMF item 16 (I worry about how other people judge me (as a mother)) score (Day 0): 3
- BIMF item 17 (able to take care of my baby and my other responsibilities) score (Day 0): 5
- BIMF item 18 (Anxiety or worry often interferes with my mothering ability) score (Day 0): 2
- BIMF item 19 (getting better at taking care of my baby) score (Day 0): 0
- BIMF item 20 (satisfied with the job I am doing as a new mother) score (Day 0): 6
- adverse events (cramping left abdominal pain, headache) (Day 0): mild, short-lasting and resolved spontaneously
- BIMF functional domain Adjustment score (Day 0, maximum possible 12): 5
- BIMF functional domain Infant Care score (Day 0, maximum possible 12): 12
- BIMF functional domain Mother-Child Interaction score (Day 0, maximum possible 18): 15
- BIMF functional domain Self Care score (Day 0, maximum possible 18): 9
- BIMF functional domain Social Support score (Day 0, maximum possible 18): 17
- BIMF functional domain Management score (Day 0, maximum possible 36): 28
- BIMF functional domain Psychological Well-being score (Day 0, maximum possible 60): 44
- BPRS Anxiety improvement (Day 1): 6
- BPRS Anxiety score (Day 1): 1
- BPRS Blunted affect improvement (Day 1): 0
- BPRS Blunted affect score (Day 1): 1
- BPRS Conceptual disorganization improvement (Day 1): 0
- BPRS Conceptual disorganization score (Day 1): 1
- BPRS Depressive Mood improvement (Day 1): 5
- BPRS Depressive Mood score (Day 1): 1
- BPRS Disorientation improvement (Day 1): 0
- BPRS Disorientation score (Day 1): 1
- BPRS Emotional withdrawal improvement (Day 1): 4
- BPRS Emotional withdrawal score (Day 1): 1
- BPRS Excitement improvement (Day 1): 1
- BPRS Excitement score (Day 1): 1
- BPRS Grandiosity improvement (Day 1): 0
- BPRS Grandiosity score (Day 1): 1
- BPRS Guilt feelings improvement (Day 1): 5
- BPRS Guilt feelings score (Day 1): 1
- BPRS Hallucinatory behaviour improvement (Day 1): 0
- BPRS Hallucinatory behaviour score (Day 1): 1
- BPRS Hostility improvement (Day 1): 0
- BPRS Hostility score (Day 1): 1
- BPRS Mannerisms and Posturing improvement (Day 1): 0
- BPRS Mannerisms and Posturing score (Day 1): 1
- BPRS Motor retardation improvement (Day 1): 0
- BPRS Motor retardation score (Day 1): 1
- BPRS Somatic Concern improvement (Day 1): 5
- BPRS Somatic Concern score (Day 1): 1
- BPRS Suspiciousness improvement (Day 1): 0
- BPRS Suspiciousness score (Day 1): 1
- BPRS Tension score (Day 1): 1
- BPRS Uncooperativeness improvement (Day 1): 0
- BPRS Uncooperativeness score (Day 1): 1
- BPRS Unusual Thought Content improvement (Day 1): 0
- BPRS Unusual Thought Content score (Day 1): 1
- MADRS Apparent sadness improvement (Day 1): 5
- MADRS Apparent sadness score (Day 1): 0
- MADRS Concentration Difficulties improvement (Day 1): 0
- MADRS Concentration Difficulties score (Day 1): 0
- MADRS Inability to Feel improvement (Day 1): 3
- MADRS Inability to Feel score (Day 1): 0
- MADRS Inner Tension improvement (Day 1): 5
- MADRS Inner Tension score (Day 1): 0
- MADRS Lassitude improvement (Day 1): 3
- MADRS Lassitude score (Day 1): 0
- MADRS Pessimistic Thoughts improvement (Day 1): 4
- MADRS Pessimistic Thoughts score (Day 1): 0
- MADRS Reduced Sleep improvement (Day 1): 5
- MADRS Reduced Sleep score (Day 1): 0
- MADRS Reduced appetite improvement (Day 1): 0
- MADRS Reduced appetite score (Day 1): 0
- MADRS Reported sadness improvement (Day 1): 4
- MADRS Reported sadness score (Day 1): 0
- MADRS Suicidal Thoughts improvement (Day 1): 0
- MADRS Suicidal Thoughts score (Day 1): 0
- BIMF item 1 (I am a good mother) score (Day 7): 6
- BIMF item 2 (I feel rested) score (Day 7): 2
- BIMF item 3 (comfortable with the way I've chosen to feed my baby) score (Day 7): 6
- BIMF item 4 (My baby and I understand each other) score (Day 7): 5
- BIMF item 5 (able to relax and enjoy time with my baby) score (Day 7): 6
- BIMF item 6 (people I can trust to care for my baby when I need a break) score (Day 7): 6
- BIMF item 8 (getting enough adult interaction) score (Day 7): 6
- BIMF item 9 (getting enough encouragement from other people) score (Day 7): 6
- BIMF item 10 (trust my own feelings (instincts) in taking care of my baby) score (Day 7): 6
